Calls of active or inactive are those of the source. The rule behind the calls is not given here.
Key:
Danio rerio [1] = assay: Cardioprotective activity in myl7:EGFP transgenic zebra fish embryo assessed as recovery of in DOX-induced shortening fraction at 100 uM dosed at 24 hpf and measured 72 hpf by fluorescent microscopy; type: functional, organism-based
[2] = Toxicity in myl7:EGFP transgenic zebra fish embryo assessed as reduction in survival rate at 25 to 100 uM dosed at 24 hpf and measured 96 hpf; type: organism-based, Danio rerio; conditions: zebrafish, in vivo
Danio rerio [3] = assay: Cardioprotective activity in myl7:EGFP transgenic zebra fish embryo assessed as decrease in DOX-induced pericardial edema at 100 uM dosed at 24 hpf and measured 72 hpf by fluorescent microscopy; type: functional, organism-based
Danio rerio [4] = assay: Cardioprotective activity in myl7:EGFP transgenic zebra fish embryo assessed as decrease in DOX-induced morphological changes at 100 uM dosed at 24 hpf and measured 72 hpf by fluorescent microscopy; type: functional, organism-based
Danio rerio [5] = assay: Cardioprotective activity in myl7:EGFP transgenic zebra fish embryo assessed as decrease in DOX-induced cardiac dysfunction at 100 uM dosed at 24 hpf and measured 72 hpf by fluorescent microscopy; type: functional, organism-based
Danio rerio [6] = assay: Cardioprotective activity in myl7:EGFP transgenic zebra fish embryo assessed as recovery of in DOX-induced heart rate impairment at 100 uM dosed at 24 hpf and measured 72 hpf by fluorescent microscopy; type: functional, organism-based
Danio rerio [7] = assay: Cytoprotection in myl7:EGFP transgenic zebra fish embryo assessed as reduction in DOX-induced lethal toxicity by measuring LC50 dosed at 24 hpf and measured 96 hpf (reference value: 51.56 uM); type: functional
[8] = Toxicity in myl7:EGFP transgenic zebra fish embryo assessed as reduction in survival rate dosed at 24 hpf and measured 96 hpf; type: organism-based, Danio rerio; conditions: zebrafish, in vivo

Row | Compound | Activity (Danio rerio [1]) | Activity [2] | Activity (Danio rerio [3]) | Activity (Danio rerio [4]) | Activity (Danio rerio [5]) | Activity (Danio rerio [6]) | LC50 (Danio rerio [7]) [µM] | LD [8] [µM] | Activity (Danio rerio [7])
1 | C[C@]12CC[C@H]3[C@]4(C)CCC[C@@](C)(C(=O)O)[C@H]4CC[C@@]3(C1)[C@H](C=O)C2=O | inactive | Non-Toxic | inactive | inactive | inactive | inactive | – | – | –
2 | C[C@]12CC[C@H]3[C@]4(C)CCC[C@@](C)(C(=O)O)[C@H]4CC[C@@]3(C1)[C@H](CO)C2=O | inactive | Non-Toxic | inactive | inactive | inactive | inactive | 74.83 | – | –
3 | C[C@]12CC[C@H]3[C@]4(C)CCC[C@@](C)(C(=O)O)[C@H]4CC[C@@]3(C1)[C@H](CO)[C@H]2O | Active | Non-Toxic | Active | Active | Active | Active | 68.5 | – | –
4 | C[C@]12CC[C@H]3[C@]4(C)CCC[C@@](C)(C(=O)O)[C@H]4CC[C@@]3(C1)[C@H](C(=O)O)[C@H]2O | Active | Non-Toxic | Active | Active | Active | Active | 66.62 | – | –
5 | C[C@@]12CC[C@@H]3[C@@](CC[C@H]4[C@@]3(C)CCC[C@@]4(C)C(=O)OCCCCCCCCO)(C[C@H]1O)C2 | – | – | – | – | – | – | – | 50 to 100 | inactive
6 | C[C@@]12CC[C@@H]3[C@@](CC[C@H]4[C@@]3(C)CCC[C@@]4(C)C(=O)OCCO)(C[C@H]1O)C2 | – | – | – | – | – | – | – | – | inactive
7 | C[C@@]12CC[C@@H]3[C@@](CC[C@H]4[C@@]3(C)CCC[C@@]4(C)C(=O)OCCCCCCCC(=O)O)(C[C@H]1O)C2 | – | – | – | – | – | – | – | 50 to 100 | inactive
8 | C[C@]12CC[C@H]3[C@]4(C)CCC[C@@](C)(C(=O)O)[C@H]4CC[C@@]3(C1)[C@H](C=O)[C@H]2O | Active | Non-Toxic | Active | Active | Active | Active | 92.61 | – | –
9 | C[C@@]12CC[C@@H]3[C@@](CC[C@H]4[C@@]3(C)CCC[C@@]4(C)C(=O)OCCCCCC(=O)O)(C[C@H]1O)C2 | – | – | – | – | – | – | – | 50 to 100 | inactive
10 | C[C@@]12CC[C@@H]3[C@@](CC[C@H]4[C@@]3(C)CCC[C@@]4(C)C(=O)OCCCCCCO)(C[C@H]1O)C2 | – | – | – | – | – | – | – | 50 to 100 | inactive
